# Values quoted from earlier work in patent publication US9308182B2 (TEVA PHARMACEUTICAL INDUSTRIES, LTD., priority 2012, dated 2016).
# Conditions: non specific MAO inhibitor; all the treatment groups; cited from earlier work
structure (smiles),measurement,value
O=C(CCNNC(=O)c1ccncc1)NCc1ccccc1 [nialamide],effect on blood pressure response to tyramine,severe increase in blood pressure
